For test [1], the target named is T1, Lethal factor (Bacillus anthracis) (UniProt P15917).
T1 sequence (whole entry): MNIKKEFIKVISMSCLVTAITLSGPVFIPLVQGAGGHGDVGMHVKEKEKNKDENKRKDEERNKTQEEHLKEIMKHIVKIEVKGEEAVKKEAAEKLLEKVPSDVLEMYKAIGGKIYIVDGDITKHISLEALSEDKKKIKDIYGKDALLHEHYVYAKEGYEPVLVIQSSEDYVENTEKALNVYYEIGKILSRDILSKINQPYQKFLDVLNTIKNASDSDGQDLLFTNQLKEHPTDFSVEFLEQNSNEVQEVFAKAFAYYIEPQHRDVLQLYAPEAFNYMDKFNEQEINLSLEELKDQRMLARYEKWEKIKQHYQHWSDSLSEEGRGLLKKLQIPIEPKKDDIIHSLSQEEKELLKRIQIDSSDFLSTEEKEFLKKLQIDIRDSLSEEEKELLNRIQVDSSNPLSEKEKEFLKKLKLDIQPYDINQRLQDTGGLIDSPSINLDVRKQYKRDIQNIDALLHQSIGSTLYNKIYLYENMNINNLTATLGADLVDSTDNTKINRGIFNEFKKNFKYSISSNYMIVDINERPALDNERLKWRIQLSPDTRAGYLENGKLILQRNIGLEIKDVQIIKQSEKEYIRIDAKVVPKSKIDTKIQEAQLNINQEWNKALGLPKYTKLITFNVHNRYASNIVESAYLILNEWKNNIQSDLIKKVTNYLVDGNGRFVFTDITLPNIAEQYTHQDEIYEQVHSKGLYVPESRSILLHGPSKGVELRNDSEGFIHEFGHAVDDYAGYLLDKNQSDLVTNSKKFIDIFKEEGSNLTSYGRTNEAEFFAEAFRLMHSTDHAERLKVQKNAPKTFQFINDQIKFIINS
The following applies: at 1 mM.

The target in test [2] is T2, Nitric oxide synthase, inducible (Mus musculus) (UniProt P29477).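 Note: recombinant enzyme, activity read out colorimetrically after 40 min.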
T2 sequence (whole entry): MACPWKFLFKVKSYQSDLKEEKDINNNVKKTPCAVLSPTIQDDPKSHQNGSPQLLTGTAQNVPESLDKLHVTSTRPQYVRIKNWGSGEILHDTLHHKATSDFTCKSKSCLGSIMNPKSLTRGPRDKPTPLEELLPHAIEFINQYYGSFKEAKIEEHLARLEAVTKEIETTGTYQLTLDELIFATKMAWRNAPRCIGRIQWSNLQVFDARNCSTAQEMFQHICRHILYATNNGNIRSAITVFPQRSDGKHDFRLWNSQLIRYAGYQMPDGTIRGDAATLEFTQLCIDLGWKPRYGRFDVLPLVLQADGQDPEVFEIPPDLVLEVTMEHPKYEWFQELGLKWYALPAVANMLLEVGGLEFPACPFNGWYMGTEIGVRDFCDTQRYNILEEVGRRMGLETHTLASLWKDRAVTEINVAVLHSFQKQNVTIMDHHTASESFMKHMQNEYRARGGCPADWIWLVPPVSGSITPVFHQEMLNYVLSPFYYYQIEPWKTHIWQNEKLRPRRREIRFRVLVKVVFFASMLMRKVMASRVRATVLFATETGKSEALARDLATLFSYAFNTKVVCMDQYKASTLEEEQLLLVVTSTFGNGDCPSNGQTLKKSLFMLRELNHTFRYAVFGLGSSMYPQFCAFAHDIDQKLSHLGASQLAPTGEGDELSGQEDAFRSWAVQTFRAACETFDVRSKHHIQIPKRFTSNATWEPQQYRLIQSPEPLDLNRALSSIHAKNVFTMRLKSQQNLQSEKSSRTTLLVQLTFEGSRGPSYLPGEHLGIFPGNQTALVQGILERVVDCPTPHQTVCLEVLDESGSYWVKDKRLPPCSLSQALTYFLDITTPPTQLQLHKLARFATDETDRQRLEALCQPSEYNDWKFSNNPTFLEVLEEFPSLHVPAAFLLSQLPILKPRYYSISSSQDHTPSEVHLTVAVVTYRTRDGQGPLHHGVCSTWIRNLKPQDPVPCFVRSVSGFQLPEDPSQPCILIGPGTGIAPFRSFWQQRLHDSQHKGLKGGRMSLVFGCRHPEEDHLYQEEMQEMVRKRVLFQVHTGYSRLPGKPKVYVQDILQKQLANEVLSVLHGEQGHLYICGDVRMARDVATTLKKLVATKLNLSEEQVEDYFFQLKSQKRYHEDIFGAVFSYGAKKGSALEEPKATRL
The following applies: at 1 mM.

Test [3] addresses Neutrophil collagenase (Homo sapiens) (UniProt P22894). Particulars: at 1 mM.
The target of test [4] is T3, Polyunsaturated fatty acid 5-lipoxygenase (Homo sapiens) (UniProt P09917).
T3 sequence (whole entry): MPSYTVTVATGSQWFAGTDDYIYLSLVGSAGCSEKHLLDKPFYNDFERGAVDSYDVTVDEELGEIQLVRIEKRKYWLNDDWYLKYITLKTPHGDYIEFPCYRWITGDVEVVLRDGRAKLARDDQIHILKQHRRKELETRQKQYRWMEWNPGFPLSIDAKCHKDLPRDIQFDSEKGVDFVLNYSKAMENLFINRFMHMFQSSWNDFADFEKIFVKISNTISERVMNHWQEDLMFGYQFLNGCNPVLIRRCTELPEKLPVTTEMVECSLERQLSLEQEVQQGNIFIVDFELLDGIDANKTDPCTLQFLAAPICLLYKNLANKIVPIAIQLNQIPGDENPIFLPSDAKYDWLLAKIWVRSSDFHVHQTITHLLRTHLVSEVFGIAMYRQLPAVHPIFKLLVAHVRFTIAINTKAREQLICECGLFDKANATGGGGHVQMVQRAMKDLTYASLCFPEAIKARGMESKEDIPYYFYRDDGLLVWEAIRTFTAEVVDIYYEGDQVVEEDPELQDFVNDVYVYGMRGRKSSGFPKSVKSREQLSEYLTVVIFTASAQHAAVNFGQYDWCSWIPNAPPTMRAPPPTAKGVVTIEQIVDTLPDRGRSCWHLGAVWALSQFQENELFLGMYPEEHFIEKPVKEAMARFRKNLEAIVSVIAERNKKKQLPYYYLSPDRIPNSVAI
The experiment in a line: Inhibition of human recombinant 5-lipoxygenase at 1 mM after 10 mins by fluorescence assay.

The target in test [5] is T4, Tyrosinase (Agaricus bisporus) (UniProt O42713).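 Note: inhibition measured at 10 min.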
T4 sequence (whole entry): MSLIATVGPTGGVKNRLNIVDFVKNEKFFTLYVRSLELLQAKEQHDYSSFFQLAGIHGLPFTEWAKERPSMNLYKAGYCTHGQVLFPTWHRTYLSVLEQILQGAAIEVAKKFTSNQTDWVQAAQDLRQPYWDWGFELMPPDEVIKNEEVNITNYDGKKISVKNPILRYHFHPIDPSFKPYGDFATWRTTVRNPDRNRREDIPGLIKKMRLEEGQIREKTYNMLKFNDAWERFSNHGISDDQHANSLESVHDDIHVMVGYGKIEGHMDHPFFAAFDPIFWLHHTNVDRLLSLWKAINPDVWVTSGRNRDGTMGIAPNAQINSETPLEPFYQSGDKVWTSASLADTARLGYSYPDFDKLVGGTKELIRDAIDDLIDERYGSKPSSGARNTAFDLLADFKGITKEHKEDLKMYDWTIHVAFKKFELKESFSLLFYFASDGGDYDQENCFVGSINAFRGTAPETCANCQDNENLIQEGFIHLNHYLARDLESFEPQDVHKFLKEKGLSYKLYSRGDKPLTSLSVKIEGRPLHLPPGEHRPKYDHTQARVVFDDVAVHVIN
The following applies: at 1 mM.

Test [6] has as its target Matrix metalloproteinase-9 (Homo sapiens) (UniProt P14780). Particulars: at 1 mM.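 Note: recombinant human MMP9, activity read after 30 min.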
The target of test [7] is T5, Interstitial collagenase (Homo sapiens) (UniProt P03956).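 Note: recombinant human enzyme, with inhibition measured after 30 min.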
T5 sequence (whole entry): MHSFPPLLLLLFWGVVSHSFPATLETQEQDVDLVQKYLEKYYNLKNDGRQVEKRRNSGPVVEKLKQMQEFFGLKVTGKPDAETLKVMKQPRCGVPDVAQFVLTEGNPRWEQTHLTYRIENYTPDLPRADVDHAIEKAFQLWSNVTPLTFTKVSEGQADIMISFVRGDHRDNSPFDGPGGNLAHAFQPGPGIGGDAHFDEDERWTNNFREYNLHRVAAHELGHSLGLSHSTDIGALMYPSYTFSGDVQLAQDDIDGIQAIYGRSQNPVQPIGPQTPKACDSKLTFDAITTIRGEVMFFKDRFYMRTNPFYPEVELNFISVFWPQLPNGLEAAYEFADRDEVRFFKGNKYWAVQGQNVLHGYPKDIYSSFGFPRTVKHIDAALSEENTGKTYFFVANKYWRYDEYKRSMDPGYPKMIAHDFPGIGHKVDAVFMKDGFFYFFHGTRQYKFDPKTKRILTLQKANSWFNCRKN
The following applies: at 1 mM.

Test [8] has as its target Stromelysin-1 (Homo sapiens) (UniProt P08254). Particulars: at 1 mM.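 Note: recombinant enzyme, inhibition read after a 30 min incubation.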
Test [9] addresses 72 kDa type IV collagenase (Homo sapiens, UniProt P08253). Particulars: at 1 mM.

Chain of 72 kDa type IV collagenase (P08253 110-660 limits assumed): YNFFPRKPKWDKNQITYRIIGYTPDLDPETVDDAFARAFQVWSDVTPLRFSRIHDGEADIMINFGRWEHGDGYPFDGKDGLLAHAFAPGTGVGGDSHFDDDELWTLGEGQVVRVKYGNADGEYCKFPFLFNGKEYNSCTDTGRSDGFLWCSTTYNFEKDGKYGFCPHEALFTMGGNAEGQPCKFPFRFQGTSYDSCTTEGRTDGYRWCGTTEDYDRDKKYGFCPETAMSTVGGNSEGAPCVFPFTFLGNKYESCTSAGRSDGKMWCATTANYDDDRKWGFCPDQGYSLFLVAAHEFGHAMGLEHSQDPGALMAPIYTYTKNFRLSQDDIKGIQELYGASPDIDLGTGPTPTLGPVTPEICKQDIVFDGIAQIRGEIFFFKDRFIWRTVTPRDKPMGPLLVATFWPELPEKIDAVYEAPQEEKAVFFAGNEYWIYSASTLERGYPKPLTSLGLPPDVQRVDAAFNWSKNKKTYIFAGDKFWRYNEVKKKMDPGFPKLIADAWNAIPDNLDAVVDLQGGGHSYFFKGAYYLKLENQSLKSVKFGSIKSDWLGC
Chain of Matrix metalloproteinase-9 (Homo sapiens) (P14780 whole entry): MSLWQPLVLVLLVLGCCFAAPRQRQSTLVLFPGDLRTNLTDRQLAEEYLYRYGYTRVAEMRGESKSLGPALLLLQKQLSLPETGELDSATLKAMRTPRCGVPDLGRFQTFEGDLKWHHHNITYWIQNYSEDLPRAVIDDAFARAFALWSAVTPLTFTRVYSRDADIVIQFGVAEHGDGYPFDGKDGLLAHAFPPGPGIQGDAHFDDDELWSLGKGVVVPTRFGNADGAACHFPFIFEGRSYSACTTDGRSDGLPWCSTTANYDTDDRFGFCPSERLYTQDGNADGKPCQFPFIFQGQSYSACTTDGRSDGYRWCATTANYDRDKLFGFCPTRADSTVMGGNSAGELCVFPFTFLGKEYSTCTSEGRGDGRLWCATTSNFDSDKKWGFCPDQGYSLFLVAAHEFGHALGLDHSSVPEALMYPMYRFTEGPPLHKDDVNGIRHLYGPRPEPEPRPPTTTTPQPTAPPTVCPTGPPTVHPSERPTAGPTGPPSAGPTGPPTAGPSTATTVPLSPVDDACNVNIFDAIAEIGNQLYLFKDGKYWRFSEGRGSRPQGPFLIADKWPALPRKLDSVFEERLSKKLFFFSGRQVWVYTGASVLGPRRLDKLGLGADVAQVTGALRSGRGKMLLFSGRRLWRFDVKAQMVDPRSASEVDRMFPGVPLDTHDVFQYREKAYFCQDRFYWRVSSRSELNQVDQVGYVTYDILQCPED
Chain of Neutrophil collagenase (Homo sapiens) (P22894 101-467 limits assumed): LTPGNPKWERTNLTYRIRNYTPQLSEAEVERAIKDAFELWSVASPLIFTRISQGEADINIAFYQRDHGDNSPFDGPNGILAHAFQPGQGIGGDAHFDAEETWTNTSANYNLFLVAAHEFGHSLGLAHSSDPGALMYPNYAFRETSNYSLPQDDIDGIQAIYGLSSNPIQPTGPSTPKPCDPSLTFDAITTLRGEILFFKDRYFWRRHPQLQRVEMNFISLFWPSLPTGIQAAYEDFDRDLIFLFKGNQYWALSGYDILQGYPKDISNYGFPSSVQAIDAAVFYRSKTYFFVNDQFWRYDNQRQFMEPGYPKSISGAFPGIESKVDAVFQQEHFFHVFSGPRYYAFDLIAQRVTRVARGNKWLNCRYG
Chain of Stromelysin-1 (Homo sapiens) (P08254 100-477 limits assumed): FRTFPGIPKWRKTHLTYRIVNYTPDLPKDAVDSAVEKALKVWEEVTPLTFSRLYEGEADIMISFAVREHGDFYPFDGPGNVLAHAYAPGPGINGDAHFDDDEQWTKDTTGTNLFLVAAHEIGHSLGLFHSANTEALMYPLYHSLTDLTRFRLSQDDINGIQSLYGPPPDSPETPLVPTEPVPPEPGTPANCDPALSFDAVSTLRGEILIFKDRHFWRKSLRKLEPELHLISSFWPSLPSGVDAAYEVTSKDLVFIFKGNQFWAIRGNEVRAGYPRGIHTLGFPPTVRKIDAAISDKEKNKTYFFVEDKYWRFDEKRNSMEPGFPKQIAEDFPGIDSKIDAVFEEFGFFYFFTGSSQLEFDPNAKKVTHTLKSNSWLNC

Turning to `O=C(O)c1cccc(O)n1`, the inhibition (commonly the drop in the measured response relative to a control, in per cent) worked out at 81% in test [1]; 6% in test [2]; 20% in [3]; 38% in test [4]; 95% in [5]; 16% in [6]. Besides, the inhibition in test [7] is 16%; in [8], 0%.
As to `O=C(O)c1ccc[nH]1`, the inhibition in [1] is 11%; in [2] it was 7%; in test [4], 48%; in test [5] it was 69%; in [7], 8%; in test [8] it was -8%. Further, in test [9], the inhibition amounted to 1%.
Regarding `Cc1nc(O)cc(O)n1`, the inhibition in [2] was determined as 1%; in [3] it was 14%; in [4], 62%; in [5], 12%; in [6], 4%; in test [7], 14%. Besides, the inhibition is 22% in [8] and 2% in test [9].
Regarding `O=C(O)c1cccnc1C(=O)O`, the inhibition in [1] was 49%; in [2] it was 5%; in test [3], 14%; in [4] it was 30%; in test [5] it was 98%; in test [6], -8%. Also, the inhibition in test [7] amounted to 4%.
For the compound `Cc1ccc(C(=O)O)c(O)c1`, the inhibition is 11% in test [1]; 15% in test [2]; 16% in test [3]; 17% in test [4]; 97% in test [5]; 10% in [6]. Moreover, the inhibition in test [7] was 8%; in test [8] it was -1%.
Turning to `Cc1cccc(C(=O)O)n1`, the inhibition was 47% in test [1]; 8% in test [2]; 3% in test [3]; 21% in test [4]; 25% in [5]; -6% in test [6]. Further, the inhibition in test [7] was -9%; in test [8] it was 48%.
Turning to `CCC(C(C)=O)C(C)=O`, the inhibition in test [1] is 4%; in test [2], -1%; in [3] it was 3%; in test [4], 62%; in test [5], 85%; in [6] it was 1%. In addition, the inhibition in [7] worked out at 7%; in test [8] it was 6%.
In the case of `O=C(O)c1c(O)cccc1O`, the inhibition in test [1] is 15%; in [2] it was 17%; in test [3], -5%; in test [4] it was 38%; in [5], 95%; in test [7], 0%. In addition, the inhibition was -4% in test [8] and -6% in test [9].
For the compound `O=C(O)c1cccc2cccnc12`, the inhibition in test [2] was 11%; in test [3], 38%; in test [4] it was 23%; in test [5], -2%; in test [6], 31%; in [7], 36%. The inhibition stood at 77% in test [8] and 25% in [9].
For `O=C(O)c1nc(Cl)ccc1Cl`, the inhibition turned out to be 20% in test [2]; 18% in test [3]; 27% in test [4]; 96% in test [5]; 18% in test [6]; 12% in test [7]. The inhibition in test [8] and in [9] was 0% in each case.
As for `CC(=O)CC(C)=O`, the inhibition in test [1] is 5%; in [2], -6%; in test [3] it was -6%; in test [4] it was 42%; in test [5] it was 77%; in [7] it was 10%. Further, the inhibition was -4% in [8] and -5% in [9].
For `CC(=O)C(Cl)C(C)=O`, the inhibition in test [1] is 9%; in test [2], 80%; in [3], -7%; in [4], 52%; in [5], 86%; in test [7] it was 11%. In addition, the inhibition in [8] was -6%; in test [9], -9%.

The values above are taken from ChEMBL document CHEMBL1649420, “Identifying chelators for metalloprotein inhibitors using a fragment-based approach” (J Med Chem, 2011).
